Experimental data taken from paper PMC10120535, “Identification of new 4-(6-oxopyridazin-1-yl)benzenesulfonamides as multi-target anti-inflammatory agents targeting carbonic anhydrase, COX-2 and 5-LOX enzymes: synthesis, biological evaluations and modelling insights” (Journal of Enzyme Inhibition and Medicinal Chemistry, 2023).

Assays:
COX-2 = biological target: T1, COX-2 (Homo sapiens, UniProt P35354); test: COX Inhibitor screening ELISA assay kit, COX-2
T1 sequence (P35354 18-604): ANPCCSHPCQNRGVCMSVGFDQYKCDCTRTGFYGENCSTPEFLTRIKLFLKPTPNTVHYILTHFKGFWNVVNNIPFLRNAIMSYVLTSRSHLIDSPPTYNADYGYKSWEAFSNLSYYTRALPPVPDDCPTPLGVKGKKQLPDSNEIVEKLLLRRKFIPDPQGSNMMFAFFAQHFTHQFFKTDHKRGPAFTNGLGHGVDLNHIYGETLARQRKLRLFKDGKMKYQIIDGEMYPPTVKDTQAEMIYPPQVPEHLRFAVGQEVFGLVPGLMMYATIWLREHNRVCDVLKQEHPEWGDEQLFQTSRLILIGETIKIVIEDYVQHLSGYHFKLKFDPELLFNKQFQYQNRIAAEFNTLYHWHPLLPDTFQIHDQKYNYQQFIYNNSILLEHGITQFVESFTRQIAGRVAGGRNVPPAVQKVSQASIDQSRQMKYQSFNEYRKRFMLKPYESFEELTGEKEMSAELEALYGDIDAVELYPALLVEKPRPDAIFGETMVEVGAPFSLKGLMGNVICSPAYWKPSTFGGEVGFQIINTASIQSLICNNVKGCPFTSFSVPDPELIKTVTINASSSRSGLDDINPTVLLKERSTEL

COX-1 = biological target: T2, COX-1 (Ovis aries, UniProt P05979); test: COX Inhibitor screening ELISA assay kit, COX-1
T2 sequence (P05979 25-600): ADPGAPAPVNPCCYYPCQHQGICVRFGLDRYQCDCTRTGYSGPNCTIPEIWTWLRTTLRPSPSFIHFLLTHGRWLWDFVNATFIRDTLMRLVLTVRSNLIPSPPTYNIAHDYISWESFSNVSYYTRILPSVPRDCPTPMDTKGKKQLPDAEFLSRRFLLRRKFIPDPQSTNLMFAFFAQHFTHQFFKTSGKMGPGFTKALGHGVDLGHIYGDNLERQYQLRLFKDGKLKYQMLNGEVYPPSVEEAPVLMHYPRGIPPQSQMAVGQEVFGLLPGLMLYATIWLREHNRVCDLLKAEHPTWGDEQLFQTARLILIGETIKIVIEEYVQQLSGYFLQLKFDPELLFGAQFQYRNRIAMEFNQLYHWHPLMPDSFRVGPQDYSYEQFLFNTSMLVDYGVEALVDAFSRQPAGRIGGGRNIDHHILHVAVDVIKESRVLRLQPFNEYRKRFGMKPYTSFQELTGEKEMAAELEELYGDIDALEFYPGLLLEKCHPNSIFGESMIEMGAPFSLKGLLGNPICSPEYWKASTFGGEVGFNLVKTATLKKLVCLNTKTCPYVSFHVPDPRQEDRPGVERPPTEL

5-LOX = test: LOX inhibitory screening assay kit; type: biochemical; details: mean from 3 different assays
mice = test: acetic acid writhing test (analgesic activity); type: in vivo; details: for Number of writhing (20 min) (Mean ± SD): n = 5, control 40 ± 2.9
Text: (§1) The experimental procedures adopted to perform the acetic acid-induced writhing assay for the analgesic activities,[45] Paw edoema assay for the anti-inflammatory activities,[46] as well as the acute ulcerogenic test[47] have been carried out as described previously.

gastric tissue of rats = test: acute ulcerogenic test, histopathology of gastric tissue; type: in vivo; details: fasted rat stomach, H & E stain
Text: as §1

rat paw edoema = test: carrageen-induced rat paw edoema assay (anti-inflammatory activity); type: in vivo; design: Anti-inflammatory activity (% inhibition of edoema) 3 h: concentration or dose not given beside the values; details: for FIF% change in paw height (Mean ± SD) 0 h / FIF% change in paw height (Mean ± SD) 1 h / FIF% change in paw height (Mean ± SD) 2 h / FIF% change in paw height (Mean ± SD) 3 h: n = 5
Text: as §1

TNF-α = test: serum TNF-α level by ELISA after paw edoema test; type: in vivo, rat; details: compared to the positive control group, n = 5
Text: (§2) ELISA assays were used to assess the serum level for the inflammatory mediators TNF-α (Kit Cat. No MBS355371, MyBioSource, USA), and IL-1β (Kit Cat. No MBS8825017, MyBioSource, USA) based on the manufacture instructions.[54]

IL-1β = test: serum IL-1β level by ELISA after paw edoema test; type: in vivo, rat; details: compared to the positive control group, n = 5
Text: as §2

| IC50 (COX-2) | IC50 (COX-1) | IC50 (5-LOX) | Structure (SMILES) | Analgesic activity (% protection) (mice) | Number of writhing (20 min) (Mean ± SD) (mice) | Ulcerogenic effect on gastric tissue (histopathological examination) (gastric tissue of rats) | FIF% change in paw height (Mean ± SD) 0 h (rat paw edoema) | FIF% change in paw height (Mean ± SD) 1 h (rat paw edoema) | FIF% change in paw height (Mean ± SD) 2 h (rat paw edoema) | Anti-inflammatory activity (% inhibition of edoema) 3 h (rat paw edoema) | FIF% change in paw height (Mean ± SD) 3 h (rat paw edoema) | Serum level of TNF-α (TNF-α) | Serum level of IL-1β (IL-1β) |
| --- | --- | --- | --- | --- | --- | --- | --- | --- | --- | --- | --- | --- | --- |
| 0.11 µM | 8.5 µM | 6.5 µM | NS(=O)(=O)c1ccc(-n2nc(OS(=O)(=O)c3ccc(F)cc3)ccc2=O)cc1 [Compound 7f, 6-Oxo-1–(4-sulfamoylphenyl)-1,6-dihydropyridazin-3-yl 4-fluorobenzenesulfonate] |  |  |  |  |  |  |  |  |  |  |
| 0.09 µM | 6.5 µM | 5 µM | COc1ccc(S(=O)(=O)Oc2ccc(=O)n(-c3ccc(S(N)(=O)=O)cc3)n2)cc1 [Compound 7e, 6-Oxo-1–(4-sulfamoylphenyl)-1,6-dihydropyridazin-3-yl 4-methoxybenzenesulfonate] |  |  |  |  |  |  |  |  |  |  |
| 0.11 µM | 5 µM | 7 µM | NS(=O)(=O)c1ccc(-n2nc(OCc3ccccc3)ccc2=O)cc1 [Compound 5a, 4–(3-(Benzyloxy)-6-oxopyridazin-1(6H)-yl)benzenesulfonamide] |  |  |  |  |  |  |  |  |  |  |
|  |  |  | O=C(O)Cc1ccccc1Nc1c(Cl)cccc1Cl [Diclofenac, reference compound] | 70.0% | 12 ± 1.9 | inflammation and damage to the layers of the stomach | 0.52 ± 0.04% | 0.28 ± 0.04% | 0.32 ± 0.04% | 59% | 0.32 ± 0.04 % |  |  |
| 0.06 µM | 12.6 µM | 2.5 µM | CCS(=O)(=O)Oc1ccc(=O)n(-c2ccc(S(N)(=O)=O)cc2)n1 [Compound 7b, 6-Oxo-1–(4-sulfamoylphenyl)-1,6-dihydropyridazin-3-yl ethanesulfonate] | 65.0% |  | mild inflammation | 0.5 ± 0.07% | 0.44 ± 0.09% | 0.58 ± 0.04% | 38.5% | 0.48 ± 0.03 % | significantly lowered | significantly lowered |
| 0.07 µM | 11.5 µM | 2 µM | NS(=O)(=O)c1ccc(-n2nc(O)ccc2=O)cc1 [Compound 3, 4–(3-Hydroxy-6-oxopyridazin-1(6H)-yl)benzenesulfonamide] |  |  |  |  |  |  |  |  |  |  |
|  | 10.4 µM | 3 µM | CS(=O)(=O)Oc1ccc(=O)n(-c2ccc(S(N)(=O)=O)cc2)n1 [Compound 7a, 6-Oxo-1–(4-sulfamoylphenyl)-1,6-dihydropyridazin-3-yl methanesulfonate] | 67.5% |  | normal texture | 0.52 ± 0.04% | 0.46 ± 0.09% | 0.44 ± 0.05% | 56% | 0.34 ± 0.05 % | significantly lowered | significantly lowered |
| 0.08 µM | 8.4 µM | 3.5 µM | Cc1ccc(S(=O)(=O)Oc2ccc(=O)n(-c3ccc(S(N)(=O)=O)cc3)n2)cc1 [Compound 7d, 6-Oxo-1–(4-sulfamoylphenyl)-1,6-dihydropyridazin-3-yl 4-methylbenzenesulfonate] |  |  |  |  |  |  |  |  |  |  |
| 0.08 µM | 8.4 µM | 4 µM | NS(=O)(=O)c1ccc(-n2nc(OS(=O)(=O)c3ccccc3)ccc2=O)cc1 [Compound 7c, 6-Oxo-1–(4-sulfamoylphenyl)-1,6-dihydropyridazin-3-yl benzenesulfonate] |  |  |  |  |  |  |  |  |  |  |
| 0.07 µM | 6.5 µM | 7 µM | N#Cc1ccc(COc2ccc(=O)n(-c3ccc(S(N)(=O)=O)cc3)n2)cc1 [Compound 5c, 4–(3-((4-Cyanobenzyl)oxy)-6-oxopyridazin-1(6H)-yl)benzenesulfonamide] |  |  |  |  |  |  |  |  |  |  |
|  |  |  | Cc1ccc(-c2cc(C(F)(F)F)nn2-c2ccc(S(N)(=O)=O)cc2)cc1 [Celecoxib, reference compound] | 60.0% | 16 ± 0.9 | normal texture | 0.5 ± 0.07% | 0.44 ± 0.09% | 0.52 ± 0.04% | 38.5% | 0.48 ± 0.04 % |  |  |
| 0.14 µM | 9.5 µM | 5 µM | NS(=O)(=O)c1ccc(-n2nc(OCc3ccc([N+](=O)[O-])cc3)ccc2=O)cc1 [Compound 5b, 4–(3-((4-Nitrobenzyl)oxy)-6-oxopyridazin-1(6H)-yl)benzenesulfonamide] |  |  |  |  |  |  |  |  |  |  |

| Structure (SMILES) | IC50 (COX-2) | IC50 (COX-1) | IC50 (5-LOX) | Analgesic activity (% protection) (mice) | Number of writhing (20 min) (Mean ± SD) (mice) | Ulcerogenic effect on gastric tissue (histopathological examination) (gastric tissue of rats) | FIF% change in paw height (Mean ± SD) 0 h (rat paw edoema) | FIF% change in paw height (Mean ± SD) 1 h (rat paw edoema) | FIF% change in paw height (Mean ± SD) 2 h (rat paw edoema) | Anti-inflammatory activity (% inhibition of edoema) 3 h (rat paw edoema) | FIF% change in paw height (Mean ± SD) 3 h (rat paw edoema) | Serum level of TNF-α (TNF-α) | Serum level of IL-1β (IL-1β) |
| --- | --- | --- | --- | --- | --- | --- | --- | --- | --- | --- | --- | --- | --- |
| CC(c1cc2ccccc2s1)N(O)C(N)=O (stereo not shown) [Zileuton, reference compound] |  |  | […] |  |  |  |  |  |  |  |  |  |  |
